Here are results for ten compounds from ChEMBL document CHEMBL1828574, “Synthesis and structural studies of pentacycloundecane-based HIV-1 PR inhibitors: a hybrid 2D NMR and docking/QM/MM/MD approach” (Eur J Med Chem, 2011).

The target in data set [1] is Human immunodeficiency virus type 1 protease (Human immunodeficiency virus 1, UniProt Q72874, Q7K). Description: Inhibition of HIV1 subtype C protease Q7K mutant expressed in Escherichia coli BL21 (DE3) pLysS using Lys-Ala-Arg-Val-Nle-p-nitro-Phe-Glu-Ala-Nle-NH2 as substrate by spectrophotometry.
Data set [2] in a line: Solubility of the compound in aqueous buffer at pH 5. Format: physicochemical.
A short description of data set [3]: Ratio of cytotoxicity for Lopinavir to compound for human MT4 cells after 5 days by XTT assay. Format: cell-based.
The test system of data set [4] is MT4. Description: Cytotoxicity against human MT4 cells after 5 days by XTT assay. In kind it is cell-based. The note with it: MT4, 120 h. (Tetrazolium assays rely on reduction of a dye to a coloured formazan, in cell work by metabolically active cells.)

Where a SMILES comes first, the peptide text is derived from it. The star is where a group is joined. X1 = Oc1cccc(N*)c1 Some results are limits rather than exact numbers.

For orientation: IC50 means the point on the concentration scale where inhibition reaches its midpoint. Compound `CC[C@H](C)[C@H](NC(=O)[C@@H](N)CO)C(=O)N[C@@H](C)C(=O)N[C@@H](CCC(N)=O)C(=O)NC12NC(=O)C3(O)C4C5CC(C6C5C3C61)C42` (mixture of isomers) displayed an IC50 in data set [1] of 5 µM. The solubility entry in data set [2] is “soluble”. The selectivity ratio at 120 h in data set [3] was determined as 6000.

Regarding `CC[C@H](C)[C@H](NC(=O)[C@@H](N)CO)C(=O)N[C@H](C(=O)N[C@@H](CCC(=O)O)C(=O)NC12NC(=O)C3(O)C4C5CC(C6C5C3C61)C42)C(C)C` (mixture of isomers), the 50% inhibitory concentration (IC50) in data set [1] came out at 2 µM. Further, in data set [2], the solubility entry was “soluble”. Further, the selectivity ratio at 120 h in data set [3] came to 6000.

`CC[C@H](C)[C@H](NC(=O)[C@@H](N)CO)C(=O)N[C@@H](C)C(=O)NC12NC(=O)C3(O)C4C5CC(C6C5C3C61)C42` (mixture of isomers; form 2) gave an IC50 in data set [1] of 10 µM.

Compound `CC[C@H](C)[C@H](NC(=O)[C@@H](N)CO)C(=O)N[C@@H](C)C(=O)N[C@@H](CCC(=O)O)C(=O)Nc1cccc(O)c1` (H-SIAE-X1) registered an IC50 in data set [1] of 10 µM.

`Cc1cccc(C)c1OCC(=O)N[C@@H](Cc1ccccc1)[C@@H](O)C[C@H](Cc1ccccc1)NC(=O)[C@H](C(C)C)N1CCCNC1=O` [LOPINAVIR] gave an IC50 in data set [4] of 0.035 µM.

`CC[C@H](C)[C@H](NC(=O)[C@@H](N)CO)C(=O)N[C@@H](C)C(=O)N[C@@H](CCC(=O)O)C(=O)NC12NC(=O)C3(OC(C)=O)C4C5CC(C6C5C3C61)C42` (mixture of isomers): the IC50 in data set [1] was greater than 10 µM. In addition, the solubility result in data set [2] is “soluble”. Also, the selectivity ratio at 120 h in data set [3] came to 6000.

Compound `COC(=O)N[C@H](C(=O)N[C@@H](Cc1ccccc1)[C@@H](O)CN(Cc1ccc(-c2ccccn2)cc1)NC(=O)[C@@H](NC(=O)OC)C(C)(C)C)C(C)(C)C` [ATAZANAVIR] yielded an IC50 in data set [1] of 0.004 µM. This counts as single-digit nanomolar.

For `CC[C@H](C)[C@H](N)C(=O)N[C@@H](C)C(=O)N[C@@H](CCC(=O)O)C(=O)NC12NC(=O)C3(O)C4C5CC(C6C5C3C61)C42` (mixture of isomers), the IC50 came out at 0.5 µM in data set [1] and 216 µM in data set [4]. Further, in data set [2], the solubility result is reported as “soluble”. Moreover, in data set [3], the selectivity ratio at 120 h worked out at 6000.

On to `CC[C@H](C)[C@H](NC(=O)[C@@H](N)CO)C(=O)N[C@@H](C)C(=O)NC12NC(=O)C3(O)C4C5CC(C6C5C3C61)C42` (mixture of isomers; form 1), for which the IC50 in data set [1] was 0.5 µM; in data set [4], greater than 300 µM. For the same compound, in data set [2], the solubility entry was “soluble”. The selectivity ratio at 120 h in data set [3] turned out to be 6000.

In the case of `CC[C@H](C)[C@H](NC(=O)[C@@H](N)CO)C(=O)N[C@@H](C)C(=O)N[C@@H](CCC(=O)O)C(=O)NC12NC(=O)C3(O)C4C5CC(C6C5C3C61)C42` (mixture of isomers), the IC50 in data set [1] is 0.078 µM; in data set [4] it was 218 µM. In addition, the solubility entry in data set [2] is given as “soluble”. Moreover, the selectivity ratio at 120 h in data set [3] worked out at 6000.
